Results reported in patent US8501732B2, “Aminomethyl quinolone compounds” (Hoffmann-La Roche Inc., priority 2011, dated 2013).

Assays:
[1] = tested on: phospho(Ser63)-c-jun in HK-2 cells; test: Cell-Based Assay for JNK Inhibitors (in-cell ELISA, phospho(Ser63)-c-jun after TNFα); conditions: HK-2 cells (human proximal tubule cells), 60 minutes compound, then 10 ng/mL TNFα for 30 minutes
Procedure: Cell-Based Assay for JNK Inhibitors
The cell-based assay employed the in-cell ELISA method to determine the ability of compounds to prevent the generation of phospho(Ser63)-c-jun in HK-2 cells (human proximal tubule cells) in response to stimulation with tumor necrosis factor α (TNFα). In brief, for quantification of phospho(Ser63)-c-jun, the cells (in 96-well format) were fixed and permeablized then incubated sequentially with a rabbit anti-phospho-c-jun First Antibody specific for the presence of the phospho-Ser63 epitope and a donkey anti-rabbit IgG Second Antibody linked to horseradish peroxidase (HRP) for colorimetric quantitation of binding. […] Blank wells received no TNFα stimulation or compound. Additional Control wells received TNFα stimulation, but no compound.
Stock cultures of HK-2 cells (ATCC, Manassas, Va.) were grown under a 5% CO2/[…] atmosphere at 37 degrees C. in Keratinocyte-SFM medium (KSFM, Invitrogen, Grand Island, N.Y.) containing 5 μg/L epidermal growth factor and 5 mg/L bovine pituitary extract (both supplied with the medium), additionally supplemented with 10% (v/v) fetal calf serum (FCS; Invitrogen, Grand Island, N.Y.) and 1% (v/v) antibiotic-antimycotic (ABAM: Sigma, St. Louis, Mo.). For assays, cells were seeded in collagen coated 96-well polystyrene plates (BD Biosciences, Franklin Lakes, N.J.) at a density of 40,000 cells/well and cultured for 24 h in the same medium (100 μL/well) followed by a further 16-24 h in 100 μL of similar medium, but without FCS. […] Plates were then allowed to stand at room temperature for 20 minutes before being washed with 200 μL/well of PBS. (Further steps were performed immediately or the plates were stored at 4 degrees C. and the assay completed the next day.) To each well was added 100 μL 1% (v/v) TritonX-100 (Sigma, St. Louis, Mo.) in PBS followed by 20 minutes standing at room temperature, washing with 200 μL/well PBS, the addition of 100 μL/well of Quenching buffer (1% (v/v) hydrogen peroxide (Sigma, St. Louis, Mo.) and 0.1% (w/v) sodium azide (Fisher Scientific, Fair Lawn, N.J.)) in PBS and a further 20 minutes at room temperature. Plates were then washed twice with 200 μL/well of 0.1% (v/v) Tween-20 (Teknova, Hollister, Calif.) in PBS before addition of 200 μL/well of 2% BSA/0.1% Tween-20 in PBS and a further 1 hour at room temperature. […] After a further one hour, rabbit anti-phospho-c-jun-Ser63 is added directly to the solution in the Blank wells resulting in 1:250 dilution of this antibody. Plates were then placed on a slowly rotating platform at 4 degrees C. overnight. Wells were then washed thrice with 200 μL/well PBS/0.1% Tween-20. After addition of the third wash, the plates were placed on a slowly rotating platform for 15 minutes at room temperature. The final PBS/Tween20 wash was then replaced with 100 μL/well of donkey anti-rabbit HRP-labeled Second Antibody (Jackson ImmunoResearch Laboratory, West Grove, Pa.) diluted 1:10,000 in Antibody Dilution Buffer and the plates placed on a slowly rotating platform for 1 hour at room temperature. Wells were then washed four times with 200 μL/well PBS/0.1% Tween-20, including slow rotation for 30 minutes for the third wash and 10 minutes for the final wash. The wells were then washed once with 200 μL PBS without Tween-20. […] Absorbance was determined at a 450 nm wavelength using a spectrophotometer (Molecular Devices SpectraMax 250).

JNK1 = JNK1 (Homo sapiens (Human), UniProt P45983); test: In Vitro JNK1 Assay (TR-FRET, phosphorylation of GST-c-Jun); assay type: biochemical; conditions: 0.2 nM active JNK1 kinase, 26.7 nM GST-c-Jun, 2 μM ATP, 30 min at room temperature
JNK1, sequence (P45983 whole entry): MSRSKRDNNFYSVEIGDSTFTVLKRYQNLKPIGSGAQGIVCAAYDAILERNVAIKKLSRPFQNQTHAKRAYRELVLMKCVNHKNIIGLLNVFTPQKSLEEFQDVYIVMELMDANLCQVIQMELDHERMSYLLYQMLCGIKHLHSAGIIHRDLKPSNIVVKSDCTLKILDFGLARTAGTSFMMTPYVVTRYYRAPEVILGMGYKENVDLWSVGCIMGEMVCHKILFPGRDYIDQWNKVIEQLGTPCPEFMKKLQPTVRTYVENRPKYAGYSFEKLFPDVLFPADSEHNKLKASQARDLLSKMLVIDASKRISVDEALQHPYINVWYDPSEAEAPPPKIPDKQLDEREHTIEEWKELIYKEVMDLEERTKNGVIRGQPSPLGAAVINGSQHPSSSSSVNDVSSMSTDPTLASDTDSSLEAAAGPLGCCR
Method in brief: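 IC50 derived from percent inhibition across 10 serially diluted concentrations, with TR-FRET detection of phospho-c-Jun via an anti-phospho-c-Jun antibody after EDTA stop. Substrate was GST-c-Jun 1-79, reacted 30 min at room temperature in pH 7.0 HEPES buffer with MgCl2, DTT, vanadate and BSA.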

EC50 [1] | IC50 (JNK1) | Structure (SMILES)
6.3 µM | 0.013 µM | COC(=O)c1c(CNC(=O)c2cnn(Cc3ccccc3)c2)c(=O)c2ccc(Cl)cc2n1-c1ccccc1 [Example I-119, 3-{[(1-Benzyl-1H-pyrazole-4-carbonyl)-amino]-methyl}-7-chloro-4-oxo-1-phenyl-1,4-dihydro-quinoline-2-carboxylic acid methyl ester]
88 µM | 0.023 µM | COc1cc2ncnc(NCc3cn(-c4ccccc4)c4cc(Cl)ccc4c3=O)c2cc1OC [Example I-171, 7-Chloro-3-[(6,7-dimethoxy-quinazolin-4-ylamino)-methyl]-1-phenyl-1H-quinolin-4-one]
9.7 µM | 0.017 µM | COC(=O)c1c(CNC(=O)c2cccc(Cl)c2)c(=O)c2ccc(Cl)cc2n1-c1ccccc1 [Example I-142, 7-Chloro-3-[(3-chloro-benzoylamino)-methyl]-4-oxo-1-phenyl-1,4-dihydro-quinoline-2-carboxylic acid methyl ester]
39 µM | 0.069 µM | O=C(NCc1cn(-c2ccccc2)c2cc(Cl)ccc2c1=O)c1cnc(N2CCS(=O)(=O)CC2)s1 [Example I-97, 2-(1,1-Dioxo-thiomorpholin-4-yl)-thiazole-5-carboxylic acid (7-chloro-4-oxo-1-phenyl-1,4-dihydro-quinolin-3-ylmethyl)-amide]
9.9 µM | 0.026 µM | COC(=O)c1c(CNC(=O)c2ccc(S(N)(=O)=O)cc2)c(=O)c2ccc(C(F)(F)F)nc2n1-c1ccccc1 [Example I-154, 4-Oxo-1-phenyl-3-[(4-sulfamoyl-benzoylamino)-methyl]-7-trifluoromethyl-1,4-dihydro-[1,8]naphthyridine-2-carboxylic acid methyl ester]
8.9 µM | 0.054 µM | COC(=O)c1c(CNC(=O)c2ccc(OC)cc2)c(=O)c2ccc(OC)cc2n1-c1ccccc1 [Example I-164, 3-[(4-methoxy-benzoylamino)-methyl]-7-methoxy-4-oxo-1-phenyl-1,4-dihydro-quinoline-2-carboxylic acid methyl ester]
2.2 µM | 0.016 µM | COC(=O)c1c(CNC(=O)c2ccc(N3CCOCC3)cc2)c(=O)c2ccc(Cl)cc2n1-c1ccccc1 [Example I-123, 7-Chloro-3-[(4-morpholin-4-yl-benzoylamino)-methyl]-4-oxo-1-phenyl-1,4-dihydro-quinoline-2-carboxylic acid methyl ester]
8.4 µM | 0.06 µM | COC(=O)c1c(CNc2ncnc3ccccc23)c(=O)c2ccc(Cl)cc2n1-c1ccccc1 [Example I-208, 7-Chloro-4-oxo-1-phenyl-3-(quinazolin-4-ylaminomethyl)-1,4-dihydro-quinoline-2-carboxylic acid methyl ester]
100 µM | 0.073 µM | COC(=O)c1c(CNC(=O)c2ccc(F)cc2)c(=O)c2ccc(OC)cc2n1-c1ccccc1 [Example I-166, 3-[(4-Fluoro-benzoylamino)-methyl]-7-methoxy-4-oxo-1-phenyl-1,4-dihydro-quinoline-2-carboxylic acid methyl ester]
100 µM | 0.12 µM | Cn1cc(C(=O)NCc2cn(-c3ccccc3F)c3cc(F)ccc3c2=O)cn1 [Example I-104, 1-Methyl-1H-pyrazole-4-carboxylic acid [7-fluoro-1-(2-fluoro-phenyl)-4-oxo-1,4-dihydro-quinolin-3-ylmethyl]-amide]
22 µM | 0.026 µM | COC(=O)c1c(CNC(=O)c2cccc(Cl)c2)c(=O)c2ccc(OC)cc2n1-c1ccccc1 [Example I-160, 3-[(3-Chloro-benzoylamino)-methyl]-7-methoxy-4-oxo-1-phenyl-1,4-dihydro-quinoline-2-carboxylic acid methyl ester]
18 µM | 0.022 µM | COC(=O)c1c(CNC(=O)c2ccc(-c3noc(C)n3)cc2)c(=O)c2ccc(Cl)cc2n1-c1ccccc1 [Example I-125, 7-Chloro-3-{[4-(5-methyl-[1,2,4]oxadiazol-3-yl)-benzoylamino]-methyl}-4-oxo-1-phenyl-1,4-dihydro-quinoline-2-carboxylic acid methyl ester]
19 µM | 0.071 µM | CN1CCCN(c2ccc(C(=O)NCc3cn(-c4ccccc4)c4cc(Cl)ccc4c3=O)cn2)CC1 [Example I-82, N-(7-Chloro-4-oxo-1-phenyl-1,4-dihydro-quinolin-3-ylmethyl)-6-(4-methyl-[1,4]diazepan-1-yl)-nicotinamide]
16 µM | 0.072 µM | COc1cccc(Cn2ccc(C(=O)NCc3cn(-c4ccccc4)c4cc(Cl)ccc4c3=O)cc2=O)c1 [Example I-38, 1-(3-Methoxy-benzyl)-2-oxo-1,2-dihydro-pyridine-4-carboxylic acid (7-chloro-4-oxo-1-phenyl-1,4-dihydro-quinolin-3-ylmethyl)-amide]
29 µM | 0.09 µM | O=C(NCc1cn(-c2ccccc2Cl)c2cc(Cl)ccc2c1=O)c1ccc(N2CCOCC2)nc1 [Example I-100]
9.8 µM | 0.013 µM | COC(=O)c1c(CNC(=O)c2cccnc2)c(=O)c2ccc(Cl)cc2n1-c1ccccc1 [Example I-139, 7-Chloro-4-oxo-1-phenyl-3-{[(pyridine-3-carbonyl)-amino]-methyl}-1,4-dihydro-quinoline-2-carboxylic acid methyl ester]
27 µM | 0.03 µM | COCCNc1ccc(C(=O)NCc2cn(-c3ccccc3)c3cc(Cl)ccc3c2=O)cn1 [Example I-74, N-(7-Chloro-4-oxo-1-phenyl-1,4-dihydro-quinolin-3-ylmethyl)-6-(2-methoxy-ethylamino)-nicotinamide]
22 µM | 0.049 µM | O=C(NCc1cn(-c2ccccc2)c2cc(Cl)ccc2c1=O)c1ccc(NC2CCOCC2)nc1 [Example I-78, N-(7-Chloro-4-oxo-1-phenyl-1,4-dihydro-quinolin-3-ylmethyl)-6-(tetrahydro-pyran-4-ylamino)-nicotinamide]
25 µM | 0.089 µM | O=C(NCc1cn(-c2ccccc2)c2cc(Cl)ccc2c1=O)c1ccc2scnc2c1 [Example I-42, Benzothiazole-5-carboxylic acid (7-chloro-4-oxo-1-phenyl-1,4-dihydro-quinolin-3-ylmethyl)-amide]
14 µM | 0.036 µM | O=C(NCc1cn(-c2ccccc2)c2cc(Cl)ccc2c1=O)c1cnc(N2CCC(O)CC2)s1 [Example I-94, 2-(4-Hydroxypiperidin-1-yl)-thiazole-5-carboxylic acid (7-chloro-4-oxo-1-phenyl-1,4-dihydro-quinolin-3-ylmethyl)-amide]
4 µM | 0.004 µM | COC(=O)c1c(CNC(=O)c2ccc(-c3cnco3)cc2)c(=O)c2ccc(Cl)cc2n1-c1ccccc1 [Example I-110, 7-Chloro-3-[(4-oxazol-5-yl-benzoylamino)-methyl]-4-oxo-1-phenyl-1,4-dihydro-quinoline-2-carboxylic acid methyl ester]
48 µM | 0.034 µM | O=C(NCc1cn(-c2ccccc2)c2cc(Cl)ccc2c1=O)c1ccc(N2CCC(O)CC2)nc1 [Example I-76, 4-Hydroxy-3,4,5,6-tetrahydro-2H-[1,2′]bipyridinyl-5′-carboxylic acid (7-chloro-4-oxo-1-phenyl-1,4-dihydro-quinolin-3-ylmethyl)-amide]
